From ChEMBL document CHEMBL1909046, “DrugMatrix in vitro pharmacology data”

Tests used:
[1] = molecular target: T1, C-C chemokine receptor type 4 (Homo sapiens, UniProt P51679); format: cell membranes, Membrane; details: chem-1; also: in other assays of this panel Not Active means under 50% inhibition at 10 µM
T1 sequence (P51679 whole entry): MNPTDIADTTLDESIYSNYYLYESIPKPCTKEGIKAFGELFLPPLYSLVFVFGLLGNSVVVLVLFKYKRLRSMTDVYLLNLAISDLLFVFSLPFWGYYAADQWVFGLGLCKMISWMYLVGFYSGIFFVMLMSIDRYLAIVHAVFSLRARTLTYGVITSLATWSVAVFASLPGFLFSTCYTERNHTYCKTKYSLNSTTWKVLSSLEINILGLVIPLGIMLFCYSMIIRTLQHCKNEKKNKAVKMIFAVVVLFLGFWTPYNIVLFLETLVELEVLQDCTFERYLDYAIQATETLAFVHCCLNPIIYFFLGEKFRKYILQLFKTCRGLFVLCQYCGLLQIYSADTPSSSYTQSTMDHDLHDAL

Vasopressin V1a receptor = Vasopressin V1a receptor (Homo sapiens, UniProt P37288); format: cell membranes, Membrane; details: hek293; also: in other assays of this panel Not Active means under 50% inhibition at 10 µM
Vasopressin V1a receptor, sequence (P37288 whole entry): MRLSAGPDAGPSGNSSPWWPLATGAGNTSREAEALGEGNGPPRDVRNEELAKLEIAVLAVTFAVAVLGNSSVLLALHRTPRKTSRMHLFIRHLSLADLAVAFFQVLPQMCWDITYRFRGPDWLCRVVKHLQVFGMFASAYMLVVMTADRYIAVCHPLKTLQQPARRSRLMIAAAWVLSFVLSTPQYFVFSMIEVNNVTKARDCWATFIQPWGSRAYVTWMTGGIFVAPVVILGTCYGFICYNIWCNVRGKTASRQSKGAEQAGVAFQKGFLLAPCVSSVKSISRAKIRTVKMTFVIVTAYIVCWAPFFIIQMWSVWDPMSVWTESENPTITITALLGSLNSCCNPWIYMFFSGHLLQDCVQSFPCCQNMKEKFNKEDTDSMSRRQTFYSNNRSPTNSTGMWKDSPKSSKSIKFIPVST

[2] = molecular target: C-C chemokine receptor type 2 (Homo sapiens, UniProt P41597); format: cell membranes, Membrane; details: cho-k1; also: in other assays of this panel Not Active means under 50% inhibition at 10 µM
C-C chemokine receptor type 2, sequence (P41597 whole entry): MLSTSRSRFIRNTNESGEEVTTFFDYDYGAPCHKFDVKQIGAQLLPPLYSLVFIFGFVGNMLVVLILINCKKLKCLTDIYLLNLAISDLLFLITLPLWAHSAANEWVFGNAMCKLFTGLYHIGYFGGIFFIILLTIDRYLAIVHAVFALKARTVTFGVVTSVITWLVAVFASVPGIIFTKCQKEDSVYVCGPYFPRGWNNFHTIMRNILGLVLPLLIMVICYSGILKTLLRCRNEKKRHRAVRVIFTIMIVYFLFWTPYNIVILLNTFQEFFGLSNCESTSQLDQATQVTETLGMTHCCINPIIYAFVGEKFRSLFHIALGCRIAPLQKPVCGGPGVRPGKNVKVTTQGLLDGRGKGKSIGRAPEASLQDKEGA

Adenosine receptor A1 = molecular target: T2, Adenosine receptor A1 (Homo sapiens, UniProt P30542); format: cell membranes, CHO, Membrane; details: cho;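 also: radioligand binding assay at the adenosine A1 receptor, with DPCPX serving as the labelled ligand; in other assays of this panel Not Active means under 50% inhibition at 10 µM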
T2 sequence (P30542 whole entry): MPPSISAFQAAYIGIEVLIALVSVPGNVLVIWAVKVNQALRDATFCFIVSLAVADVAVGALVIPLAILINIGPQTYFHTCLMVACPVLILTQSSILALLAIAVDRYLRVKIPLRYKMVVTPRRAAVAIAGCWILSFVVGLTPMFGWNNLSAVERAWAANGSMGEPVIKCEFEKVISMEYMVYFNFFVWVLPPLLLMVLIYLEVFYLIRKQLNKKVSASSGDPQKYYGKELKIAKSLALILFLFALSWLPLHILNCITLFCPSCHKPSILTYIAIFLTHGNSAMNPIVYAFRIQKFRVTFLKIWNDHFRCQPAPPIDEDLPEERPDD

[3] = molecular target: Mitogen-activated protein kinase 1 (Homo sapiens, UniProt P28482); assay: DRUGMATRIX: Protein Serine/Threonine Kinase, ERK2 enzyme inhibition (substrate: Myelin Basic Protein); design: species or system Escherichia coli; details: Not Active = under 50% inhibition at 10 µM
Mitogen-activated protein kinase 1, sequence (P28482 whole entry): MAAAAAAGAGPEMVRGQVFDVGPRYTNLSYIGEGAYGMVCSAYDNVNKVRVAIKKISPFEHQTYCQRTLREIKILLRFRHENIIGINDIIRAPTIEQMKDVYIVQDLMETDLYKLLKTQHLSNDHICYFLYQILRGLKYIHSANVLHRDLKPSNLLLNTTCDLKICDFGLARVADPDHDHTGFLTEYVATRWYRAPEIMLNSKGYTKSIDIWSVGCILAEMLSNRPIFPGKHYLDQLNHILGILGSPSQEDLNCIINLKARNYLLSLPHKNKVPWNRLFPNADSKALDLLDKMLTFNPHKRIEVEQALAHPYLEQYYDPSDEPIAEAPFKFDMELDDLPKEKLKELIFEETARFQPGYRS

[4] = molecular target: T3, Neuropeptide Y receptor type 2 (Homo sapiens, UniProt P49146); format: cell membranes, KAN-TS, Membrane; details: kan-ts; also: in other assays of this panel Not Active means under 50% inhibition at 10 µM
T3 sequence (P49146 whole entry): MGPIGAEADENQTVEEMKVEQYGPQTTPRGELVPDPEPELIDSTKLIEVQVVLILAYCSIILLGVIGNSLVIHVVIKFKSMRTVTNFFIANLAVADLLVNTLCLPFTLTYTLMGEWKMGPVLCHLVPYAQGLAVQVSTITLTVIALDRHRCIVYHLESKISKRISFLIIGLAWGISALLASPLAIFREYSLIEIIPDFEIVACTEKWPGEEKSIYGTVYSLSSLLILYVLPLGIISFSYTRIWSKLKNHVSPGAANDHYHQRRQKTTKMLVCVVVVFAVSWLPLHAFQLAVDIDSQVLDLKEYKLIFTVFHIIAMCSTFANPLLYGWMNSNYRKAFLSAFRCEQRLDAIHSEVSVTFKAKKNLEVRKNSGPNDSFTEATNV

[5] = molecular target: Platelet-activating factor receptor (Homo sapiens, UniProt P25105); format: tissue-based; also: in other assays of this panel Not Active means under 50% inhibition at 10 µM
Platelet-activating factor receptor, sequence (P25105 whole entry): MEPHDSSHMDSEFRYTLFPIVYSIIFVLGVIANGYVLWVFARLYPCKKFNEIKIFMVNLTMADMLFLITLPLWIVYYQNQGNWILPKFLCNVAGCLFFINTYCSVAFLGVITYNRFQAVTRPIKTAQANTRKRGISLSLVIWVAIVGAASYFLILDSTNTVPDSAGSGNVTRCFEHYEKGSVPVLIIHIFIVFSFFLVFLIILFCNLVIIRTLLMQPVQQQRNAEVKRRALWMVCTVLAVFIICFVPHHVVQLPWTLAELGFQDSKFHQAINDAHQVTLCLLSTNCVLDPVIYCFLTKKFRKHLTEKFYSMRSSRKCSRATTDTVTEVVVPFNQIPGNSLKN

CCC1(C)CC(=O)NC1=O (configuration not stated) [ETHOSUXIMIDE]
Not Active: IC50 [1] | IC50 (Vasopressin V1a receptor) | IC50 [2] | IC50 (Adenosine receptor A1) | IC50 [3] | IC50 [4] | IC50 [5]

Cc1nnc2n1-c1ccc(Cl)cc1C(c1ccccc1)=NC2 [ALPRAZOLAM]
Not Active: IC50 [1] | IC50 (Vasopressin V1a receptor) | IC50 [2] | IC50 (Adenosine receptor A1) | IC50 [3] | IC50 [4] | IC50 [5]

CC(C)=CCC/C(C)=C/CO [GERANIOL]
Not Active: IC50 [1] | IC50 (Vasopressin V1a receptor) | IC50 [2] | IC50 (Adenosine receptor A1) | IC50 [3] | IC50 [4] | IC50 [5]

COc1ccc(C(=O)N2CCCC2=O)cc1
Not Active: IC50 [1] | IC50 (Vasopressin V1a receptor) | IC50 [2] | IC50 (Adenosine receptor A1) | IC50 [3] | IC50 [4] | IC50 [5]

GENTAMICIN
Not Active: IC50 [1] | Ki [1] | IC50 (Vasopressin V1a receptor) | Ki (Vasopressin V1a receptor) | IC50 [2] | Ki [2] | IC50 (Adenosine receptor A1) | Ki (Adenosine receptor A1) | IC50 [3] | Ki [3] | IC50 [4] | Ki [4] | IC50 [5] | Ki [5]

CC(C)NNC(=O)c1ccncc1 [IPRONIAZID]
Not Active: IC50 [1] | IC50 (Vasopressin V1a receptor) | IC50 [2] | IC50 (Adenosine receptor A1) | IC50 [3] | IC50 [4] | IC50 [5]

CCCNCC(O)COc1ccccc1C(=O)CCc1ccccc1 (configuration not stated) [PROPAFENONE]
Not Active: IC50 [1] | IC50 (Vasopressin V1a receptor) | IC50 [2] | IC50 (Adenosine receptor A1) | IC50 [3] | IC50 [4] | IC50 [5]

O=c1cc(N2CCOCC2)oc2c(-c3ccccc3)cccc12 [LY-294002]
Not Active: IC50 [1] | IC50 (Vasopressin V1a receptor) | IC50 [2] | IC50 (Adenosine receptor A1) | IC50 [3] | IC50 [4] | IC50 [5]

NCCCC(O)(P(=O)(O)O)P(=O)(O)O [ALENDRONIC ACID]
Not Active: IC50 [1] | IC50 (Vasopressin V1a receptor) | IC50 [2] | IC50 (Adenosine receptor A1) | IC50 [3] | IC50 [4] | IC50 [5]

Nc1ccc2c3c(cccc13)C(=O)NC2=O
Not Active: IC50 [1] | IC50 (Vasopressin V1a receptor) | IC50 [2] | IC50 (Adenosine receptor A1) | IC50 [3] | IC50 [4] | IC50 [5]

CC(C)(C)NC(=O)[C@H]1CC[C@H]2[C@@H]3CC[C@H]4NC(=O)C=C[C@]4(C)[C@H]3CC[C@]12C [FINASTERIDE]
Not Active: IC50 [1] | IC50 (Vasopressin V1a receptor) | IC50 [2] | IC50 (Adenosine receptor A1) | IC50 [3] | IC50 [4] | IC50 [5]

CC[C@H](C)[C@H]1O[C@]2(C=C[C@@H]1C)C[C@@H]1C[C@@H](C/C=C(\C)[C@@H](O[C@H]3C[C@H](OC)[C@@H](O[C@H]4C[C@H](OC)[C@@H](O)[C@H](C)O4)[C@H](C)O3)[C@@H](C)/C=C/C=C3\CO[C@@H]4[C@H](O)C(C)=C[C@@H](C(=O)O1)[C@]34O)O2.CO[C@H]1C[C@H](O[C@H]2[C@H](C)O[C@@H](O[C@@H]3/C(C)=C/C[C@@H]4C[C@@H](C[C@]5(C=C[C@H](C)[C@@H](C(C)C)O5)O4)OC(=O)[C@@H]4C=C(C)[C@@H](O)[C@H]5OC/C(=C\C=C\[C@@H]3C)[C@]54O)C[C@@H]2OC)O[C@@H](C)[C@@H]1O [ABAMECTIN]
Not Active: IC50 [1] | IC50 (Vasopressin V1a receptor) | IC50 [2] | IC50 (Adenosine receptor A1) | IC50 [3] | IC50 [4] | IC50 [5]

Cn1c(=O)c2[nH]cnc2n(C)c1=O.Cn1c(=O)c2[nH]cnc2n(C)c1=O.NCCN [AMINOPHYLLINE]
Not Active: IC50 [1] | IC50 (Vasopressin V1a receptor) | IC50 [2] | IC50 (Adenosine receptor A1) | IC50 [3] | IC50 [4] | IC50 [5]

C#C[C@]1(OC(C)=O)CC[C@H]2[C@@H]3CCC4=C[C@@H](OC(C)=O)CC[C@@H]4[C@H]3CC[C@@]21C [ETHYNODIOL DIACETATE]
Not Active: IC50 [1] | IC50 (Vasopressin V1a receptor) | IC50 [2] | IC50 (Adenosine receptor A1) | IC50 [3] | IC50 [4] | IC50 [5]

CN/C(=N\CCSCc1nc[nH]c1C)NC#N [CIMETIDINE]
Not Active: IC50 [1] | IC50 (Vasopressin V1a receptor) | IC50 [2] | IC50 (Adenosine receptor A1) | IC50 [3] | IC50 [4] | IC50 [5]

COc1ccc2c3c1O[C@H]1C[C@@H](O)C=C[C@@]31CCN(C)C2 [GALANTAMINE]
Not Active: IC50 [1] | IC50 (Vasopressin V1a receptor) | IC50 [2] | IC50 (Adenosine receptor A1) | IC50 [3] | IC50 [4] | IC50 [5]

OC(CCCN1CCCCC1)(c1ccccc1)c1ccccc1 [DIPHENIDOL]
Not Active: IC50 [1] | IC50 (Vasopressin V1a receptor) | IC50 [2] | IC50 (Adenosine receptor A1) | IC50 [3] | IC50 [4] | IC50 [5]

CCC(=O)O[C@]1(C(=O)CCl)[C@@H](C)C[C@H]2[C@@H]3CCC4=CC(=O)C=C[C@]4(C)[C@@]3(F)[C@@H](O)C[C@@]21C [CLOBETASOL PROPIONATE]
Not Active: IC50 [1] | IC50 (Vasopressin V1a receptor) | IC50 [2] | IC50 (Adenosine receptor A1) | IC50 [3] | IC50 [4] | IC50 [5]

CCCN(CCC)S(=O)(=O)c1ccc(C(=O)O)cc1 [PROBENECID]
Not Active: IC50 [1] | IC50 (Vasopressin V1a receptor) | IC50 [2] | IC50 (Adenosine receptor A1) | IC50 [3] | IC50 [4] | IC50 [5]

O=C(O)CCNC(=O)c1ccccc1 [BETAMIPRON]
Not Active: IC50 [1] | IC50 (Vasopressin V1a receptor) | IC50 [2] | IC50 (Adenosine receptor A1) | IC50 [3] | IC50 [4] | IC50 [5]

C[C@H]1O[C@@H](n2cc(F)c(=O)[nH]c2=O)[C@H](O)[C@@H]1O [DOXIFLURIDINE]
Not Active: IC50 [1] | IC50 (Vasopressin V1a receptor) | IC50 [2] | IC50 (Adenosine receptor A1) | IC50 [3] | IC50 [4] | IC50 [5]

CC[C@H]1CN2CCc3cc(OC)c(OC)cc3[C@@H]2C[C@@H]1C[C@H]1NCCc2cc(OC)c(OC)cc21 [EMETINE]
Not Active: IC50 [1] | IC50 (Vasopressin V1a receptor) | IC50 [2] | IC50 (Adenosine receptor A1) | IC50 [3] | IC50 [4] | IC50 [5]

O=c1cnn([C@@H]2O[C@H](CO)[C@@H](O)[C@H]2O)c(=O)[nH]1 [6-AZAURIDINE]
Not Active: IC50 [1] | IC50 (Vasopressin V1a receptor) | IC50 [2] | IC50 (Adenosine receptor A1) | IC50 [3] | IC50 [4] | IC50 [5]

COC(=O)CCc1ccc(OCC(O)CNC(C)C)cc1 (configuration not stated) [ESMOLOL]
Not Active: IC50 [1] | IC50 (Vasopressin V1a receptor) | IC50 [2] | IC50 (Adenosine receptor A1) | IC50 [3] | IC50 [4] | IC50 [5]

C[C@@H]1O[C@@H](O[C@@H]2C=C3CC[C@@H]4[C@H](CC[C@]5(C)[C@@H](c6ccc(=O)oc6)CC[C@]45O)[C@@]3(C)CC2)[C@H](O)[C@H](O)[C@H]1O [PROSCILLARIDIN]
Not Active: IC50 [1] | IC50 (Vasopressin V1a receptor) | IC50 [2] | IC50 (Adenosine receptor A1) | IC50 [3] | IC50 [4] | IC50 [5]
